Tested on: NL-RLuc virus (HIV)
Assay: Inhibition of HIV replication (NL-RLuc luciferase reporter virus in MT-2 cells)
Type: cell-based
Conditions: Human immunodeficiency virus 1, MT2, 120 h
Description: Inhibition of HIV Replication
A recombinant NL-RLuc proviral clone was constructed in which a section of the nef gene from NL4-3 was replaced with the Renilla Luciferase gene. This virus is fully infectious and can undergo multiple cycles of replication in cell culture. In addition, the luciferous reporter provides a simple and easy method for quantitating the extent of virus growth and consequently, the antiviral activity of test compounds. The plasmid pNLRLuc contains the proviral NL-Rluc DNA cloned into pUC18 at the PvuII site. The NL-RLuc virus was prepared by transfection of 293T cells with the plasmid pNLRLuc. Transfections were performed using the LipofectAMINE PLUS kit from Invitrogen (Carlsbad, Calif.) according to the manufacturer and the virus generated was titered in MT-2 cells. For susceptibility analyses, the titrated virus was used to infect MT-2 cells in the presence of compound, and after 5 days of incubation, cells were processed and quantitated for virus growth by the amount of expressed luciferase. Assay media was RPMI 1640 supplemented with 10% heat inactivated fetal bovine serum (FBS), 100 units/ml penicillin G/100 units/ml streptomycin, 10 mM HEPES buffer pH 7.55 and 2 mM L-glutamine. The results from at least 2 experiments were used to calculate the EC50 values. Luciferase was quantitated using the Dual Luciferase kit from Promega (Madison, Wis.). Susceptibility of viruses to compounds was determined by incubation in the presence of serial dilutions of the compound. The 50% effective concentration (EC50) was calculated by using the exponential form of the median effect equation where (Fa)=1/[1+(ED50/drug conc.)^m] (Johnson V A, Byington R T. Infectivity Assay. In Techniques in HIV Research. ed. Aldovini A, Walker B D. 71-76. New York: Stockton Press. 1990).

Cc1cccc(C2CCc3cc(-c4c(CO)nc(C)c([C@H](OC(C)(C)C)C(=O)O)c4N4CCC(C)(C)CC4)ccc3O2)n1 (stereo partly drawn) [Example 45, (2S)-2-tert-Butoxy-2-(4-(4,4-dimethylpiperidin-1-yl)-6-(hydroxymethyl)-2-methyl-5-(2-(6-methylpyridin-2-yl)chroman-6-yl)pyridin-3-yl)acetic acid]
EC50: 7 nM

Cc1nc(C)c([C@H](OC(C)(C)C)C(=O)O)c(N2CCC(C)(C)CC2)c1-c1ccc2c(c1)CN(Cc1ccc(F)cc1)C2 [Example 21, (S)-2-(tert-butoxy)-2-(4-(4,4-dimethylpiperidin-1-yl)-5-(2-(4-fluorobenzyl)isoindolin-5-yl)-2,6-dimethylpyridin-3-yl)acetic acid]
EC50: 30 nM

Cc1ccc(C[C@@H]2CCc3cc(-c4c(C)nc(C)c([C@H](OC(C)(C)C)C(=O)O)c4N4CCC(C)(C)CC4)ccc3O2)c(F)c1 [Example 30, (S)-2-tert-Butoxy-2-(4-(4,4-dimethylpiperidin-1-yl)-5-((S)-2-(2-fluoro-4-methylbenzyl)chroman-6-yl)-2,6-dimethylpyridin-3-yl)acetic acid]
EC50: 5 nM

Cc1nc(C)c([C@H](OC(C)(C)C)C(=O)O)c(N2CCC(C)(C)CC2)c1-c1ccc2[nH]c(=O)cc(O)c2c1 [Example 12, (S)-2-(tert-butoxy)-2-(4-(4,4-dimethylpiperidin-1-yl)-5-(4-hydroxy-2-oxo-1,2-dihydroquinolin-6-yl)-2,6-dimethylpyridin-3-yl)acetic acid]
EC50: 4960 nM

Cc1nc(C)c([C@H](OC(C)(C)C)C(=O)O)c(N2CCC(C)(C)CC2)c1-c1ccc2c(c1)CC[C@H](Cc1ccc(F)c(F)c1)O2 [Example 29, (S)-2-tert-Butoxy-2-(5-((R)-2-(3,4-difluorobenzyl)chroman-6-yl)-4-(4,4-dimethylpiperidin-1-yl)-2,6-dimethylpyridin-3-yl)acetic acid]
EC50: 5 nM

Cc1nc(C)c([C@H](OC(C)(C)C)C(=O)O)c(N2CCC(C)(C)CC2)c1-c1ccc2c(c1)CC[C@](C)(Cc1ccc(F)cc1)O2 [Example 38, (S)-2-tert-Butoxy-2-(4-(4,4-dimethylpiperidin-1-yl)-5-((R)-2-(4-fluorobenzyl)-2-methylchroman-6-yl)-2,6-dimethylpyridin-3-yl)acetic acid]
EC50: 4 nM

Cc1nc(C)c([C@H](OC(C)(C)C)C(=O)O)c(N2CCC(C)(C)CC2)c1-c1ccc2c(c1)c(OCc1ccc(F)cc1)cc(=O)n2C [Example 20, (S)-2-(tert-butoxy)-2-(4-(4,4-dimethylpiperidin-1-yl)-5-(4-((4-fluorobenzyl)oxy)-1-methyl-2-oxo-1,2-dihydroquinolin-6-yl)-2,6-dimethylpyridin-3-yl)acetic acid]
EC50: 87 nM

Cc1nc(C)c([C@H](OC(C)(C)C)C(=O)O)c(N2CCC(C)(C)CC2)c1-c1ccc2[nH]c(=O)[nH]c2c1 [Example 8, (S)-2-(tert-butoxy)-2-(4-(4,4-dimethylpiperidin-1-yl)-2,6-dimethyl-5-(2-oxo-2,3-dihydro-1H-benzo[d]imidazol-5-yl)pyridin-3-yl)acetic acid]
EC50: 7060 nM

Cc1nc(C)c([C@H](OC(C)(C)C)C(=O)O)c(N2CCC(C)(C)CC2)c1-c1ccc2c(c1)CC[C@H](Cc1ccc(F)cc1)O2 [Example 35, (S)-2-tert-Butoxy-2-(4-(4,4-dimethylpiperidin-1-yl)-5-((R)-2-(4-fluorobenzyl)chroman-6-yl)-2,6-dimethylpyridin-3-yl)acetic acid]
EC50: 3 nM

Cc1nc(C)c([C@H](OC(C)(C)C)C(=O)O)c(N2CCC(C)(C)CC2)c1-c1ccc2c(c1)CCC2 [Example 5, (S)-2-(tert-butoxy)-2-(5-(2,3-dihydro-1H-inden-5-yl)-4-(4,4-dimethylpiperidin-1-yl)-2,6-dimethylpyridin-3-yl)acetic acid]
EC50: 56 nM

Cc1nc(C)c([C@H](OC(C)(C)C)C(=O)O)c(N2CCC(C)(C)CC2)c1-c1ccc2c(c1)CC[C@@H](Cc1ccccc1)O2 [Example 32, (S)-2-(5-((S)-2-Benzylchroman-6-yl)-4-(4,4-dimethylpiperidin-1-yl)-2,6-dimethylpyridin-3-yl)-2-tert-butoxyacetic acid]
EC50: 2 nM

Cc1nc(CO)c(-c2ccc3c(c2)CCC(c2ccc(F)cc2)O3)c(N2CCC(C)(C)CC2)c1[C@H](OC(C)(C)C)C(=O)O (stereo partly drawn) [Example 43, (2S)-2-tert-Butoxy-2-(4-(4,4-dimethylpiperidin-1-yl)-5-(2-(4-fluorophenyl)chroman-6-yl)-6-(hydroxymethyl)-2-methylpyridin-3-yl)acetic acid]
EC50: 7 nM

Cc1nc(CO)c(-c2ccc3c(c2)CC[C@@H](Cc2ccc(F)cc2)O3)c(N2CCC(C)(C)CC2)c1[C@H](OC(C)(C)C)C(=O)O [Example 36, (S)-2-(tert-Butoxy)-2-(4-(4,4-dimethylpiperidin-1-yl)-5-((S)-2-(4-fluorobenzyl)chroman-6-yl)-6-(hydroxymethyl)-2-methylpyridin-3-yl)acetic acid]
EC50: 2 nM

Cc1nc(C)c([C@H](OC(C)(C)C)C(=O)O)c(N2CCC(C)(C)CC2)c1-c1ccc2c(c1)CCC(c1ccc(F)cc1)O2 (stereo partly drawn) [Example 42, (2S)-2-tert-Butoxy-2-(4-(4,4-dimethylpiperidin-1-yl)-5-(2-(4-fluorophenyl)chroman-6-yl)-2,6-dimethylpyridin-3-yl)acetic acid]
EC50: 7 nM

Cc1nc(C)c([C@H](OC(C)(C)C)C(=O)O)c(N2CCC(C)(C)CC2)c1-c1ccc2c(c1)CC[C@@](C)(Cc1ccc(F)cc1)O2 [Example 39, (S)-2-tert-Butoxy-2-(4-(4,4-dimethylpiperidin-1-yl)-5-((S)-2-(4-fluorobenzyl)-2-methylchroman-6-yl)-2,6-dimethylpyridin-3-yl)acetic acid]
EC50: 3 nM

Cc1nc(C)c([C@H](OC(C)(C)C)C(=O)O)c(N2CCC(C)(C)CC2)c1-c1ccc2c(c1)OCCO2 [Example 3, (S)-2-(tert-butoxy)-2-(5-(2,3-dihydrobenzo[b][1,4]dioxin-6-yl)-4-(4,4-dimethylpiperidin-1-yl)-2,6-dimethylpyridin-3-yl)acetic acid]
EC50: 101 nM

Cc1nc(C)c([C@H](OC(C)(C)C)C(=O)O)c(N2CCC(C)(C)CC2)c1-c1ccc2c(c1)CN(Cc1ccc(F)cc1)C2=O [Example 13, (S)-2-(tert-butoxy)-2-(4-(4,4-dimethylpiperidin-1-yl)-5-(2-(4-fluorobenzyl)-1-oxoisoindolin-5-yl)-2,6-dimethylpyridin-3-yl)acetic acid]
EC50: 12 nM

Cc1nc(C)c([C@H](OC(C)(C)C)C(=O)O)c(N2CCC(C)(C)CC2)c1-c1ccc2c(c1)CN(C(=O)c1ccc(F)cc1)C2 [Example 22, (S)-2-(tert-butoxy)-2-(4-(4,4-dimethylpiperidin-1-yl)-5-(2-(4-fluorobenzoyl)isoindolin-5-yl)-2,6-dimethylpyridin-3-yl)acetic acid]
EC50: 53 nM

Cc1nc(C)c([C@H](OC(C)(C)C)C(=O)O)c(N2CCC(C)(C)CC2)c1-c1ccc2c(c1)CCN(Cc1nccs1)C2=O [Example 15, (S)-2-(tert-butoxy)-2-(4-(4,4-dimethylpiperidin-1-yl)-2,6-dimethyl-5-(1-oxo-2-(thiazol-2-ylmethyl)-1,2,3,4-tetrahydroisoquinolin-6-yl)pyridin-3-yl)acetic acid]
EC50: 14 nM

Cc1nc(C)c([C@H](OC(C)(C)C)C(=O)O)c(N2CCC(C)(C)CC2)c1-c1ccc2c(c1)CCC(COc1ccccc1F)O2 (stereo partly drawn) [Example 40, (2S)-2-tert-Butoxy-2-(4-(4,4-dimethylpiperidin-1-yl)-5-(2-((2-fluorophenoxy)methyl)chroman-6-yl)-2,6-dimethylpyridin-3-yl)acetic acid]
EC50: 4 nM

COc1ccc(S(=O)(=O)N2Cc3ccc(-c4c(C)nc(C)c([C@H](OC(C)(C)C)C(=O)O)c4N4CCC(C)(C)CC4)cc3C2)cc1 [Example 24, (S)-2-(tert-butoxy)-2-(4-(4,4-dimethylpiperidin-1-yl)-5-(2-((4-methoxyphenyl)sulfonyl)isoindolin-5-yl)-2,6-dimethylpyridin-3-yl)acetic acid]
EC50: 10 nM

Cc1nc(C)c([C@H](OC(C)(C)C)C(=O)O)c(N2CCC(C)(C)CC2)c1-c1ccc2c(c1)CCN(Cc1cscn1)C2=O [Example 17, (S)-2-(tert-butoxy)-2-(4-(4,4-dimethylpiperidin-1-yl)-2,6-dimethyl-5-(1-oxo-2-(thiazol-4-ylmethyl)-1,2,3,4-tetrahydroisoquinolin-6-yl)pyridin-3-yl)acetic acid]
EC50: 24 nM

Cc1nc(C)c([C@H](OC(C)(C)C)C(=O)O)c(N2CCC(C)(C)CC2)c1-c1ccc2c(c1)CNC2=O [Example 11, (S)-2-(tert-butoxy)-2-(4-(4,4-dimethylpiperidin-1-yl)-2,6-dimethyl-5-(1-oxoisoindolin-5-yl)pyridin-3-yl)acetic acid]
EC50: 1680 nM

Cc1nc(C)c([C@H](OC(C)(C)C)C(=O)O)c(N2CCC(C)(C)CC2)c1-c1ccc2c(c1)CC[C@@H](Cc1ccc(F)c(F)c1)O2 [Example 28, (S)-2-tert-Butoxy-2-(5-((S)-2-(3,4-difluorobenzyl)chroman-6-yl)-4-(4,4-dimethylpiperidin-1-yl)-2,6-dimethylpyridin-3-yl)acetic acid]
EC50: 2 nM
